pIC50: −log10 of the molar value.
molecular target: Adenosine receptor A2a (Homo sapiens, UniProt P29274); test: Displacement of [3H]-ZM241385 from human recombinant A2A receptor expressed in human HEK293 cell membrane preincubated for 5 mins and measured after 1.5 hrs by radioligand competition binding assay; format: cell membranes
Sequence (P29274 whole entry): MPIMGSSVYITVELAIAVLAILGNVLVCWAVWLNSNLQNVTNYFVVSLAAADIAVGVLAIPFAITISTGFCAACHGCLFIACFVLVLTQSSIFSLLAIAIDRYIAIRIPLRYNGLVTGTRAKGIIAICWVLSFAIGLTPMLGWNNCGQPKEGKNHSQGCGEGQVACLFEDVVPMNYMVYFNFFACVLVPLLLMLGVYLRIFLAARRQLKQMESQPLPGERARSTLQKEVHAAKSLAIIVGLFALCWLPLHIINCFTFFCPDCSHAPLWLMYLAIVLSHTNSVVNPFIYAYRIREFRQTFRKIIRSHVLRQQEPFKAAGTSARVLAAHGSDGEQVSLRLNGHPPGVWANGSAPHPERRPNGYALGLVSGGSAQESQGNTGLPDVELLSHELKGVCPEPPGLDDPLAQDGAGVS

Row | SMILES | pIC50
1 | Cc1ccc(-c2cn3c(nc4ccccc43)c(N)n2)cc1 | 7.84
2 | COc1cccc(-c2cn3c(nc4ccccc43)c(N)n2)c1 | 8.00
3 | N#Cc1ccc(-c2cn3c(nc4ccccc43)c(N)n2)cc1 | 7.13
4 | Nc1nc(C2CCN(CC(=O)N3CCOCC3)CC2)cn2c1nc1ccccc12 | < 5.00
5 | COc1ccccc1-c1cn2c(nc3ccccc32)c(N)n1 | 7.08
6 | Cc1c(-c2ccccc2)nc(N)c2nc3ccccc3n12 | 6.94
7 | Nc1nc(-c2ccccc2)cn2c1nc1ccccc12 | 7.33
8 | Nc1nc(-c2ccc([N+](=O)[O-])cc2)cn2c1nc1ccccc12 | 7.14
9 | Nc1nc(-c2ccc(C(F)(F)F)cc2)cn2c1nc1ccccc12 | 7.58
10 | Nc1nc(CO)cn2c1nc1ccccc12 | 6.83
11 | CC(=O)Nc1cccc(-c2cn3c(nc4ccccc43)c(N)n2)c1 | 7.31
12 | Nc1nc(C2CCNCC2)cn2c1nc1ccccc12 | < 5.00
13 | Nc1nc(-c2ccc(Cl)cc2)cn2c1nc1ccccc12 | 7.45
14 | Nc1nc(-c2ccc(Br)cc2)cn2c1nc1ccccc12 | 7.42
15 | Nc1nc(-c2ccc(OC(F)(F)F)cc2)cn2c1nc1ccccc12 | 6.88
16 | COCCN1CCC(c2cn3c(nc4ccccc43)c(N)n2)CC1 | < 5.00
17 | Nc1nc(-c2ccco2)cn2c1nc1ccccc12 | 7.49
18 | CC(=O)Nc1ccc(-c2cn3c(nc4ccccc43)c(N)n2)cc1 | 6.51
19 | CC(C)(C)c1ccc(-c2cn3c(nc4ccccc43)c(N)n2)cc1 | 7.48
20 | Nc1nc(-c2ccc(F)cc2F)cn2c1nc1ccccc12 | 7.47
21 | COc1ccc(-c2cn3c(nc4ccccc43)c(N)n2)cc1 | 7.29
22 | Nc1nc(-c2ccc(O)cc2)cn2c1nc1ccccc12 | 7.09

molecular target: T1, Adenosine receptor A1 (Homo sapiens, UniProt P30542); test: Displacement of [3H]DPCPX from human adenosine A1 receptor expressed in CHO-K1 cell membrane preincubated for 5 mins followed measured after 50 mins by radioligand competition binding assay; format: cell membranes
T1 sequence (P30542 whole entry): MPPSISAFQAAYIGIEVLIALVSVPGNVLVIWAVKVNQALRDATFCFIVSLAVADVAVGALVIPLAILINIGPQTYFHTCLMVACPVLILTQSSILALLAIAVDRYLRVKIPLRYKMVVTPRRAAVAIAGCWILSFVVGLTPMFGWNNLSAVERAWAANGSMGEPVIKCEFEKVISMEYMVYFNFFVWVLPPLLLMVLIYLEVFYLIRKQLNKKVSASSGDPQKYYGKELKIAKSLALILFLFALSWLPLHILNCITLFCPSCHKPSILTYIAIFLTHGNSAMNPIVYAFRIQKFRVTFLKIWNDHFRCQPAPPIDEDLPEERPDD

Row | SMILES | pIC50
23 | Cc1ccc(-c2cn3c(nc4ccccc43)c(N)n2)cc1 | 7.19
24 | COc1cccc(-c2cn3c(nc4ccccc43)c(N)n2)c1 | 7.02
25 | Nc1nc(Cc2ccccc2)cn2c1nc1ccccc12 | 6.13
26 | Nc1nc(-c2cccc(Br)c2)cn2c1nc1ccccc12 | 7.04
27 | CC(=O)Nc1cccc(-c2cn3c(nc4ccccc43)c(N)n2)c1 | 7.77
28 | COc1cccc(-c2cn3c(nc4cc(F)c(F)cc43)c(N)n2)c1 | 6.34
29 | Nc1nc(-c2ccco2)cn2c1nc1ccccc12 | 8.20
30 | Nc1nc(-c2ccc(F)cc2F)cn2c1nc1ccccc12 | 8.36

Reference: ChEMBL document CHEMBL4813923, “Design, synthesis and biological evaluation of novel scaffold benzo[4,5]imidazo [1,2-a]pyrazin-1-amine: Towards adenosine A2A receptor (A2A AR) antagonist” (Eur J Med Chem, 2021)
